{"source": "patent US8877698B2", "about": "“Method and composition for disinfecting hard surfaces” (priority 2001, dated 2014)", "origin": "cited, not measured here", "tested_on": "poliovirus", "data": [{"compound": "CCO", "note": "[ethanol]", "values": [{"measurement": "minimum concentration required to inactivate poliovirus", "result": 70, "unit": "%"}, {"measurement": "virucidal action against poliovirus", "result": "little virucidal action"}]}]}
